Source: the supplement of paper PMC3937590
One block for each compound: values may come before it.

Columns and labels:
Assay in all cases: -log10 GI50 (growth inhibition 50%) (-log10(M)); higher = more potent growth inhibition
[1] = tested on: MDAMB231
In short: (§1)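 Breast cancer cell lines were exposed to each compound for 72 hours at nine doses in 1:5 serial dilution, in triplicate, with a luminescence read-out against a time-zero plate. A Gompertz curve was fitted to the dose-response data by nonlinear least squares. The value is minus log10 of GI50, the molar concentration giving the set level of growth inhibition. Values equal to the top dose carry a < qualifier.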

[2] = tested on: T47D_KBluc
In short: as §1

[3] = tested on: MDAMB361
In short: as §1

[4] = tested on: UACC812
In short: as §1

[5] = tested on: CAMA1
In short: as §1

[6] = tested on: SUM229PE
In short: as §1

[7] = tested on: 184A1
In short: as §1

[8] = tested on: BT483
In short: as §1

[9] = tested on: MDAMB134VI
In short: as §1

[10] = tested on: MCF7
In short: as §1

[11] = tested on: MDAMB453
In short: as §1

[12] = tested on: HCC2185
In short: as §1

[13] = tested on: HCC1806
In short: as §1

[14] = tested on: HS578T
In short: as §1

[15] = tested on: SUM149PT
In short: as §1

[16] = tested on: MDAMB175VII
In short: as §1

[17] = tested on: MCF12A
In short: as §1

[18] = tested on: HCC1143
In short: as §1

[19] = tested on: HCC1395
In short: as §1

[20] = tested on: HCC1428
In short: as §1

[21] = tested on: AU565
In short: as §1

[22] = tested on: SUM225CWN
In short: as §1

[23] = tested on: LY2
In short: as §1

[24] = tested on: T47D
In short: as §1

[25] = tested on: HCC1954
In short: as §1

[26] = tested on: HCC70
In short: as §1

[27] = tested on: SUM159PT
In short: as §1

[28] = tested on: HCC1419
In short: as §1

[29] = tested on: MCF10F
In short: as §1

[30] = tested on: BT20
In short: as §1

[31] = tested on: BT474
In short: as §1

[32] = tested on: ZR75B
In short: as §1

[33] = tested on: MDAMB415
In short: as §1

[34] = tested on: MX1
In short: as §1

[35] = tested on: HCC1937
In short: as §1

[36] = tested on: MCF10A
In short: as §1

[37] = tested on: SUM52PE
In short: as §1

[38] = tested on: SUM185PE
In short: as §1

[39] = tested on: HCC1569
In short: as §1

[40] = tested on: SUM1315MO2
In short: as §1

[41] = tested on: 600MPE
In short: as §1

[42] = tested on: HCC3153
In short: as §1

[43] = tested on: MDAMB157
In short: as §1

[44] = tested on: HCC38
In short: as §1

[45] = tested on: ZR751
In short: as §1

[46] = tested on: SKBR3
In short: as §1

[47] = tested on: BT549
In short: as §1

[48] = tested on: HCC1187
In short: as §1

[49] = tested on: 184B5
In short: as §1

Compound: O=c1[nH]c2ccccc2n1C1CCN(Cc2ccc(-c3[nH]c4cc5ncnc5cc4nc3-c3ccccc3)cc2)CC1 [Akt inhibitor VIII]
-log10 GI50 [1]: 4.82
-log10 GI50 [2]: 5.31
-log10 GI50 [3]: 6.06
-log10 GI50 [4]: 5.45
-log10 GI50 [5]: 5.17
-log10 GI50 [6]: 4.94
-log10 GI50 [7]: 5.58
-log10 GI50 [8]: 6.2
-log10 GI50 [9]: 5.05
-log10 GI50 [10]: 5.77
-log10 GI50 [11]: 5.73
-log10 GI50 [12]: 5.86
-log10 GI50 [13]: 5.05
-log10 GI50 [14]: 4.89
-log10 GI50 [15]: 4.96
-log10 GI50 [16]: 5.75
-log10 GI50 [17]: 5.01
-log10 GI50 [18]: 4.87
-log10 GI50 [19]: 5.25
-log10 GI50 [20]: 5.35
-log10 GI50 [21]: 5.61
-log10 GI50 [22]: 6.16
-log10 GI50 [23]: 5.85
-log10 GI50 [24]: 5.78
-log10 GI50 [25]: 5.08
-log10 GI50 [26]: 5.74
-log10 GI50 [27]: 5.12
-log10 GI50 [28]: 6.03
-log10 GI50 [29]: 5.42
-log10 GI50 [30]: 5.09
-log10 GI50 [31]: 6.08
-log10 GI50 [32]: 5.93
-log10 GI50 [33]: 5.7
-log10 GI50 [34]: 5.45
-log10 GI50 [35]: 5
-log10 GI50 [36]: 5.34
-log10 GI50 [37]: 5.85
-log10 GI50 [38]: 5.95
-log10 GI50 [39]: 5.07
-log10 GI50 [40]: 5.34
-log10 GI50 [41]: 5.15
-log10 GI50 [42]: 5.01
-log10 GI50 [43]: 4.86
-log10 GI50 [44]: 4.9
-log10 GI50 [45]: 6.13
-log10 GI50 [46]: 5.68
-log10 GI50 [47]: 5.08
-log10 GI50 [48]: 5.43
-log10 GI50 [49]: 5.56

Compound: O=C1C(Cl)=C(NCCN2CCOCC2)C(=O)c2ncccc21
-log10 GI50 [1]: 5.14
-log10 GI50 [2]: 5.38
-log10 GI50 [3]: 5.27
-log10 GI50 [4]: 5.6
-log10 GI50 [5]: 5.59
-log10 GI50 [6]: 5.26
-log10 GI50 [7]: 5.82
-log10 GI50 [8]: 6.19
-log10 GI50 [9]: 5.22
-log10 GI50 [10]: 5.43
-log10 GI50 [11]: 5.26
-log10 GI50 [12]: 5.97
-log10 GI50 [13]: 5.61
-log10 GI50 [14]: 5.7
-log10 GI50 [15]: 5.69
-log10 GI50 [16]: 5.3
-log10 GI50 [17]: 5.76
-log10 GI50 [18]: 5.7
-log10 GI50 [19]: 6.15
-log10 GI50 [20]: 5.44
-log10 GI50 [21]: 5.81
-log10 GI50 [22]: 5.64
-log10 GI50 [23]: 6.27
-log10 GI50 [24]: 5.19
-log10 GI50 [25]: 5.22
-log10 GI50 [26]: 5.52
-log10 GI50 [27]: 5.76
-log10 GI50 [28]: 5.72
-log10 GI50 [29]: 5.6
-log10 GI50 [30]: 5.49
-log10 GI50 [31]: 5.56
-log10 GI50 [32]: 5.26
-log10 GI50 [33]: 5.59
-log10 GI50 [34]: 6.17
-log10 GI50 [35]: 6.07
-log10 GI50 [36]: 5.65
-log10 GI50 [37]: 5.62
-log10 GI50 [38]: 6.5
-log10 GI50 [39]: 5.36
-log10 GI50 [40]: 5.96
-log10 GI50 [41]: 5.34
-log10 GI50 [42]: 5.64
-log10 GI50 [43]: 5.87
-log10 GI50 [44]: 5.64
-log10 GI50 [45]: 5.76
-log10 GI50 [46]: 5.86
-log10 GI50 [47]: 5.8
-log10 GI50 [48]: 5.73
-log10 GI50 [49]: 5.57

Compound: O=c1[nH]c(=O)n([C@H]2C[C@H](O)[C@@H](CO)O2)cc1F [Floxuridine]
-log10 GI50 [1]: 3.32
-log10 GI50 [2]: 2.8
-log10 GI50 [3]: 3.4
-log10 GI50 [4]: 4.11
-log10 GI50 [5]: 4.36
-log10 GI50 [6]: 4.16
-log10 GI50 [7]: 3.67
-log10 GI50 [8]: 4.15
-log10 GI50 [9]: 3.2
-log10 GI50 [10]: 3.77
-log10 GI50 [11]: 5.79
-log10 GI50 [12]: 3.2
-log10 GI50 [13]: 4.02
-log10 GI50 [14]: 3.52
-log10 GI50 [15]: 4.12
-log10 GI50 [16]: 4.69
-log10 GI50 [17]: 4.86
-log10 GI50 [18]: 4.08
-log10 GI50 [19]: 3.51
-log10 GI50 [20]: 4.04
-log10 GI50 [21]: 4.97
-log10 GI50 [22]: 3.53
-log10 GI50 [23]: 5.63
-log10 GI50 [24]: 3.48
-log10 GI50 [25]: 3.99
-log10 GI50 [26]: 3.67
-log10 GI50 [27]: 4.49
-log10 GI50 [28]: 2.73
-log10 GI50 [29]: 4.34
-log10 GI50 [30]: 3.49
-log10 GI50 [31]: 3.37
-log10 GI50 [32]: 5.16
-log10 GI50 [33]: 4.5
-log10 GI50 [34]: 2.84
-log10 GI50 [35]: 3.37
-log10 GI50 [36]: 4.86
-log10 GI50 [37]: 3.45
-log10 GI50 [39]: 3.38
-log10 GI50 [40]: 3.18
-log10 GI50 [41]: 5.81
-log10 GI50 [42]: 3.11
-log10 GI50 [43]: 3.87
-log10 GI50 [44]: 3.79
-log10 GI50 [45]: 5.55
-log10 GI50 [46]: 3.66
-log10 GI50 [47]: 3.57
-log10 GI50 [48]: 3.81
-log10 GI50 [49]: 3.65

The next lines start with results.

-log10 GI50 [1]: 5.17
-log10 GI50 [3]: 5.01
-log10 GI50 [8]: 5.24
-log10 GI50 [9]: 5.23
-log10 GI50 [10]: 5.23
-log10 GI50 [11]: 5.31
-log10 GI50 [12]: 5.11
-log10 GI50 [13]: 5.06
-log10 GI50 [16]: 5.14
-log10 GI50 [18]: 5.51
-log10 GI50 [19]: 5.72
-log10 GI50 [20]: 5.29
-log10 GI50 [24]: 5.18
-log10 GI50 [25]: 4.95
-log10 GI50 [28]: 5.36
-log10 GI50 [30]: 5.43
-log10 GI50 [31]: 5.2
-log10 GI50 [33]: 5.32
-log10 GI50 [35]: 5.2
-log10 GI50 [39]: 5.28
-log10 GI50 [42]: 5.51
-log10 GI50 [43]: 5.23
-log10 GI50 [44]: 5.53
-log10 GI50 [46]: 4.96
-log10 GI50 [47]: 5.66
-log10 GI50 [48]: 5.18
Compound: CC[C@H](CO)Nc1nc(NCc2ccccc2O)c2ncn(C(C)C)c2n1 [Olomoucine II]
-log10 GI50 [4]: 5.19
-log10 GI50 [5]: 5.3
-log10 GI50 [6]: 5.13
-log10 GI50 [7]: 5.5
-log10 GI50 [14]: 5.18
-log10 GI50 [15]: 5.18
-log10 GI50 [17]: 5.22
-log10 GI50 [21]: 5.33
-log10 GI50 [22]: 5.28
-log10 GI50 [23]: 5.46
-log10 GI50 [26]: 5.47
-log10 GI50 [27]: 5.32
-log10 GI50 [29]: 5.03
-log10 GI50 [32]: 5.23
-log10 GI50 [34]: 5.24
-log10 GI50 [36]: 5.51
-log10 GI50 [37]: 5.19
-log10 GI50 [38]: 5.98
-log10 GI50 [40]: 5.47
-log10 GI50 [41]: 5.23
-log10 GI50 [45]: 5.21
-log10 GI50 [49]: 5.53

-log10 GI50 [1]: < 4.18
-log10 GI50 [2]: < 4.18
-log10 GI50 [3]: < 4.18
-log10 GI50 [8]: < 4.48
-log10 GI50 [9]: < 4.18
-log10 GI50 [10]: < 4.48
-log10 GI50 [11]: < 4.18
-log10 GI50 [12]: < 4.18
-log10 GI50 [13]: < 4.18
-log10 GI50 [16]: < 4.18
-log10 GI50 [18]: < 4.18
-log10 GI50 [19]: < 4.18
-log10 GI50 [20]: < 4.18
-log10 GI50 [24]: < 4.48
-log10 GI50 [25]: < 4.48
-log10 GI50 [28]: < 4.18
-log10 GI50 [30]: < 4.48
-log10 GI50 [31]: < 4.18
-log10 GI50 [33]: < 4.48
-log10 GI50 [35]: < 4.48
-log10 GI50 [39]: < 4.18
-log10 GI50 [42]: < 4.48
-log10 GI50 [43]: < 4.18
-log10 GI50 [44]: < 4.48
-log10 GI50 [46]: < 4.48
-log10 GI50 [47]: < 4.48
Compound: O=C(O)c1ccc(-c2c[nH]c3ncc(-c4ccccc4)cc23)cc1C1CCCC1
-log10 GI50 [4]: < 4.18
-log10 GI50 [5]: < 4.18
-log10 GI50 [6]: 5.8
-log10 GI50 [7]: 5.95
-log10 GI50 [15]: < 4.18
-log10 GI50 [17]: 5.13
-log10 GI50 [21]: < 4.48
-log10 GI50 [23]: 5.15
-log10 GI50 [26]: < 4.18
-log10 GI50 [27]: < 4.48
-log10 GI50 [29]: 4.59
-log10 GI50 [32]: < 4.18
-log10 GI50 [34]: 4.45
-log10 GI50 [36]: 5.55
-log10 GI50 [37]: < 4.48
-log10 GI50 [38]: 4.79
-log10 GI50 [40]: 6.1
-log10 GI50 [41]: < 4.18
-log10 GI50 [45]: < 4.18
-log10 GI50 [49]: 5.97
